Results from patent US9271993B2, “Treatment of bacterial infectious diseases” (priority 2010, dated 2016).
Values after ≈ are worked out from the molar mass of the structure shown. Like-named read-outs stand apart in the source and are kept apart here.

Experiments:
E. coli = test: MIC against gram-negative bacteria; type: cell-based; conditions: Escherichia coli, read-out: MIC
Text: Agents Chemother. 2003, 47:1496-1502.

M. abscessus = test: MIC against non-tuberculous rapidly-growing mycobacteria, microdilution; type: cell-based; conditions: Mycobacteroides abscessus; strain 500039/08 M. abscessus; read-out: minimal inhibitory concentration (MIC)
Procedure: (§1) Activity of apramycin was assessed in standard microdilution assays and is expressed as minimal inhibitory concentration (MIC) in μg/ml.

M. bolletii = test: as above; type: cell-based; conditions: Mycobacteroides abscessus, read-out: minimal inhibitory concentration (MIC)
Procedure: as §1

M. massiliense = test: as above; type: cell-based; conditions: Mycobacteroides abscessus, read-out: minimal inhibitory concentration (MIC)
Procedure: as §1

[1] = system: clinical methicillin resistant Staphylococcus aureus (MRSA) isolates; test: MIC against clinical MRSA isolates, LB microdilution assay; conditions: Staphylococcus aureus, MRSA
Procedure: Activity was assessed by determination of minimal inhibitory concentrations (MIC), as described in Pfister et al., Antimicrob. […] Cultures from single colonies were grown in LB medium and used for MIC tests in a microtiter plate format. Starting cultures contained 200 μl of bacterial cells at an optical density of 0.025 at 600 nm, and the respective drug was added in twofold series of dilution.

bacterial ribosomes = test: Ribosomal drug susceptibility (MIC) of recombinant bacteria; parameters: MIC, bacterial ribosomes: unit not given beside the values; conditions: for MIC, bacterial ribosomes: Table 7, 72 h incubation
mitohybrid ribosomes = test: as above; parameters: MIC, mitohybrid ribosomes: unit not given beside the values; conditions: for MIC, mitohybrid ribosomes: Table 7, 72 h incubation
cytohybrid ribosomes = test: as above; parameters: MIC, cytohybrid ribosomes: unit not given beside the values; conditions: for MIC, cytohybrid ribosomes: Table 7, 72 h incubation
M. avium-intracellulare = test: Drug susceptibility of non-tuberculous slow-growing mycobacteria, MGIT960; type: cell-based
M. kansasii = test: as above; type: cell-based
[2] = system: Cochlear explants from newborn mice; test: Cochleatoxicity in vitro, hair cell loss in cochlear explants; type: cell-based
Procedure: FIG. 1: Cochleatoxicity in vitro
(a) Dose-response relationship of drug-induced hair cell loss in cochlear explants. Hair cell loss was quantified along the entire length of the explant and plotted against drug concentration. %=% outer hair cells missing.
Cochlear explants from newborn mice were treated with 0.5 mM aminoglycoside compound for 24 h; subsequently hair cell damage was assessed by epifluorescence microscopy.

[3] = General toxicity in guinea pigs; type: in vivo; conditions: for observations (general toxicity): once daily for 14 days, monitored additional 14 days
Text: Guinea pigs received a systemic application of aminoglycosides once daily in the dosing indicated in Table 9 for 14 days and were then monitored for an additional 14 days.

[4] = guinea pig
Text: “Treshold shift” is the difference in auditory threshold before and three weeks after treatment.
Guinea pigs received a systemic application of aminoglycosides once daily in the dosing indicated for 14 days, and were allowed to rest for 14 days before post-treatment ABR was taken.

[5] = E. coli AG01, clin. isol. (Gm^S)
[6] = E. coli AG02, clin. isol (Gm^S)
[7] = E. coli AG03, clin. isol (Gm^R)
[8] = E. coli AG07, BM13/pIP135, resistance mechanism AAC(3)
[9] = E. coli AG08, BM13/pIP055, resistance mechanism ANT(2″)
[10] = E. coli AG09, AAC(6′)-1B, resistance mechanism AAC(6′)
[11] = E. coli AG36, HB101/pAT197, resistance mechanism ANT(4′)
[12] = E. coli AG37, HB101/pAG21-1, resistance mechanism APH(3′)
[13] = strain 177217/10 M. massiliense
[14] = strain 186139/07 M. massiliense
[15] = strain 500044/09 M. massiliense
[16] = MRSA AG042, strain 101-06R Gm^R

## NC[C@H]1O[C@H](O[C@H]2[C@H](O)[C@@H](O[C@H]3O[C@H](CO)[C@@H](O)[C@H](N)[C@H]3O)[C@H](N)C[C@@H]2N)[C@H](N)C[C@@H]1O [Tobramycin]
E. coli; [5]
  MIC: 4 to 8 µg/mL (≈ 8.56 to 17.1 µM)
E. coli; [6]
  MIC: 2 µg/mL (≈ 4.28 µM)
E. coli; [7]
  MIC: 32 µg/mL (≈ 68.4 µM)
E. coli; E. coli AG06, BM13
  MIC: 0.5 µg/mL (≈ 1.07 µM)
E. coli; [8]
  MIC: 4 µg/mL (≈ 8.56 µM)
E. coli; [9]
  MIC: 8 to 64 µg/mL (≈ 17.1 to 137 µM)
E. coli; [10]
  MIC: 64 to 128 µg/mL (≈ 137 to 274 µM)
E. coli; [11]
  MIC: 16 to 32 µg/mL (≈ 34.2 to 68.4 µM)
E. coli; [12]
  MIC: 1 to 2 µg/mL (≈ 2.14 to 4.28 µM)
M. abscessus
  MIC: 4 µg/mL (≈ 8.56 µM)
M. bolletii; strain 179639/10 M. bolletii
  MIC: 32 µg/mL (≈ 68.4 µM)
M. bolletii; strain 181739/08 M. bolletii
  MIC: 32 µg/mL (≈ 68.4 µM)
M. bolletii; strain 183177/08 M. bolletii
  MIC: 16 µg/mL (≈ 34.2 µM)
M. massiliense; [13]
  MIC: 32 µg/mL (≈ 68.4 µM)
M. massiliense; [14]
  MIC: 16 µg/mL (≈ 34.2 µM)
M. massiliense; [15]
  MIC: 8 µg/mL (≈ 17.1 µM)
[1]
  MIC: 128 to 256 µg/mL (≈ 274 to 548 µM)
[1]; MRSA AG038, strain 70-26S Gm^S
  MIC: 0.5 to 1 µg/mL (≈ 1.07 to 2.14 µM)
[1]; MRSA AG040, strain 87-26S Gm^S
  MIC: ≥ 256 µg/mL
[1]; MRSA AG041, strain 98-25S Gm^S
  MIC: 0.5 to 1 µg/mL (≈ 1.07 to 2.14 µM)
[1]; [16]
  MIC: ≥ 256 µg/mL
[1]; MRSA AG043, strain 01-08R Gm^R
  MIC: 32 µg/mL (≈ 68.4 µM)
[1]; MRSA AG044, strain 07-12R Gm^R
  MIC: 8 µg/mL (≈ 17.1 µM)
[1]; MRSA AG045, strain 08-12R Gm^R
  MIC: 8 µg/mL (≈ 17.1 µM)
[1]; MRSA AG047, strain 18-06R Gm^R
  MIC: ≥ 256 µg/mL
[1]; MRSA AG048, strain 20-06R Gm^R
  MIC: ≥ 256 µg/mL
[1]; MRSA AG049, strain 23-12R Gm^R
  MIC: 8 to 16 µg/mL (≈ 17.1 to 34.2 µM)
[1]; MRSA AG050, strain 31-06R Gm^R
  MIC: 32 to 64 µg/mL (≈ 68.4 to 137 µM)
[1]; MRSA AG051, strain 36-06R Gm^R
  MIC: 32 to 64 µg/mL (≈ 68.4 to 137 µM)
[1]; MRSA AG052, strain 53-14I Gm^R
  MIC: 8 to 16 µg/mL (≈ 17.1 to 34.2 µM)
[1]; MRSA AG053, strain 56-06R Gm^R
  MIC: 16 to 32 µg/mL (≈ 34.2 to 68.4 µM)
Bacterial ribosomes
  MIC, bacterial ribosomes: 1
Mitohybrid ribosomes
  MIC, mitohybrid ribosomes: 128
Cytohybrid ribosomes
  MIC, cytohybrid ribosomes: 512

## CNC1C(OC2OC(CO)C(N)C(O)C2O)OC2CC(N)C(OC3C(N)CC(N)C(O)C3O)OC2C1O (centres unmarked) [Apramycin]
E. coli; [5]
  MIC: 16 µg/mL (≈ 29.7 µM)
E. coli; [6]
  MIC: 16 to 32 µg/mL (≈ 29.7 to 59.3 µM)
E. coli; [7]
  MIC: 16 to 32 µg/mL (≈ 29.7 to 59.3 µM)
E. coli; E. coli AG06, BM13
  MIC: 4 µg/mL (≈ 7.41 µM)
E. coli; [8]
  MIC: 8 µg/mL (≈ 14.8 µM)
E. coli; [9]
  MIC: 4 µg/mL (≈ 7.41 µM)
E. coli; [10]
  MIC: 8 µg/mL (≈ 14.8 µM)
E. coli; [11]
  MIC: 4 µg/mL (≈ 7.41 µM)
E. coli; [12]
  MIC: 4 µg/mL (≈ 7.41 µM)
M. avium-intracellulare; strain 182034/06 M. avium-intracellulare, 1 μg/ml
  Activity (resistant/susceptible): R
M. avium-intracellulare; strain 182034/06 M. avium-intracellulare, 4 μg/ml
  Activity (resistant/susceptible): S
M. avium-intracellulare; strain 182034/06 M. avium-intracellulare, 10 μg/ml
  Activity (resistant/susceptible): S
M. avium-intracellulare; strain 182124/07 M. avium-intracellulare, 1 μg/ml
  Activity (resistant/susceptible): R
M. avium-intracellulare; strain 182124/07 M. avium-intracellulare, 4 μg/ml
  Activity (resistant/susceptible): S
M. avium-intracellulare; strain 182124/07 M. avium-intracellulare, 10 μg/ml
  Activity (resistant/susceptible): S
M. avium-intracellulare; strain 182550/07 M. avium-intracellulare, 1 μg/ml
  Activity (resistant/susceptible): R
M. avium-intracellulare; strain 182550/07 M. avium-intracellulare, 4 μg/ml
  Activity (resistant/susceptible): S
M. avium-intracellulare; strain 182550/07 M. avium-intracellulare, 10 μg/ml
  Activity (resistant/susceptible): S
M. kansasii; strain 177227/06 M. kansasii, 1 μg/ml
  Activity (resistant/susceptible): R
M. kansasii; strain 177227/06 M. kansasii, 4 μg/ml
  Activity (resistant/susceptible): S
M. kansasii; strain 177227/06 M. kansasii, 10 μg/ml
  Activity (resistant/susceptible): S
M. kansasii; strain 180235/06 M. kansasii, 1 μg/ml
  Activity (resistant/susceptible): R
M. kansasii; strain 180235/06 M. kansasii, 4 μg/ml
  Activity (resistant/susceptible): S
M. kansasii; strain 180235/06 M. kansasii, 10 μg/ml
  Activity (resistant/susceptible): S
M. abscessus
  MIC: 0.5 µg/mL (≈ 0.927 µM)
M. bolletii; strain 179639/10 M. bolletii
  MIC: 4 µg/mL (≈ 7.41 µM)
M. bolletii; strain 181739/08 M. bolletii
  MIC: 4 µg/mL (≈ 7.41 µM)
M. bolletii; strain 183177/08 M. bolletii
  MIC: 2 µg/mL (≈ 3.71 µM)
M. massiliense; [13]
  MIC: 4 µg/mL (≈ 7.41 µM)
M. massiliense; [14]
  MIC: 4 µg/mL (≈ 7.41 µM)
M. massiliense; [15]
  MIC: 2 µg/mL (≈ 3.71 µM)
[2]
  In vitro cochleatoxicity (drug-induced hair cell loss in cochlear explants, dose-response): significantly less than that of gentamicin
[2]; mouse, 24 h, 0.5 mM
  Hair cell count: no hair cells missing (<5%)
  inner and outer hair cells missing / lost: < 5%
[3]; 152 mg/kg base (132 mg/kg gentamicin base equivalent)
  observations (general toxicity): normal weight gain
[3]; 184 mg/kg base (160 mg/kg gentamicin base equivalent)
  observations (general toxicity): normal weight gain
[3]; 217 mg/kg base (188 mg/kg gentamicin base equivalent)
  observations (general toxicity): normal weight gain
[3]; 355 mg/kg base (309 mg/kg gentamicin base equivalent)
  observations (general toxicity): less weight gain
[3]; 432 mg/kg
  Kidney histopathology, interpretation: Mild, multifocal interstitial lymphoplasmacytic inflammation
[3]; 432 mg/kg base (376 mg/kg gentamicin base equivalent)
  observations (general toxicity): less weight gain
[3]; 432 mg/kg, lymphoplasmacytic aggregates in the renal interstitium
  Kidney histopathology, renal mass affected in the sections: less than 5%
[3]; 649 mg/kg
  Kidney histopathology, interpretation: Mild, multifocal tubular nephrosis
[3]; 649 mg/kg base (564 mg/kg gentamicin base equivalent)
  observations (general toxicity): less weight gain
[3]; 649 mg/kg, foci of tubular degeneration and regeneration in the superficial cortex
  Kidney histopathology, renal mass affected in the sections: less than 5%
[3]; one animal each at 432 and 649 mg/kg
  necropsy findings at the end of the experiment: no significant lesions or gross findings were observed
[4]
  in vivo auditory response (auditory brain stem response, threshold shift at 12 kHz): substantially less affected
[1]; MRSA AG038, strain 70-26S Gm^S
  MIC: 8 µg/mL (≈ 14.8 µM)
[1]; MRSA AG040, strain 87-26S Gm^S
  MIC: 8 µg/mL (≈ 14.8 µM)
[1]; MRSA AG041, strain 98-25S Gm^S
  MIC: 8 µg/mL (≈ 14.8 µM)
[1]; [16]
  MIC: 8 µg/mL (≈ 14.8 µM)
[1]; MRSA AG043, strain 01-08R Gm^R
  MIC: 16 to 32 µg/mL (≈ 29.7 to 59.3 µM)
[1]; MRSA AG044, strain 07-12R Gm^R
  MIC: 16 µg/mL (≈ 29.7 µM)
[1]; MRSA AG045, strain 08-12R Gm^R
  MIC: 8 to 16 µg/mL (≈ 14.8 to 29.7 µM)
[1]; MRSA AG046, strain 12-06R Gm^R
  MIC: 8 to 16 µg/mL (≈ 14.8 to 29.7 µM)
[1]; MRSA AG047, strain 18-06R Gm^R
  MIC: 8 to 16 µg/mL (≈ 14.8 to 29.7 µM)
[1]; MRSA AG048, strain 20-06R Gm^R
  MIC: 8 to 16 µg/mL (≈ 14.8 to 29.7 µM)
[1]; MRSA AG049, strain 23-12R Gm^R
  MIC: 8 to 16 µg/mL (≈ 14.8 to 29.7 µM)
[1]; MRSA AG050, strain 31-06R Gm^R
  MIC: 4 to 8 µg/mL (≈ 7.41 to 14.8 µM)
[1]; MRSA AG051, strain 36-06R Gm^R
  MIC: 8 µg/mL (≈ 14.8 µM)
[1]; MRSA AG052, strain 53-14I Gm^R
  MIC: 8 µg/mL (≈ 14.8 µM)
[1]; MRSA AG053, strain 56-06R Gm^R
  MIC: 8 µg/mL (≈ 14.8 µM)
Bacterial ribosomes
  MIC, bacterial ribosomes: 1-2
Bacterial ribosomes; Table 10
  MIC, wild type bacteria: 1.0 to 2.0 µg/mL
Mitohybrid ribosomes
  MIC, mitohybrid ribosomes: 1024
Mitohybrid ribosomes; Table 10
  MIC, bacteria with mitohybrid ribosome: >256.0 µg/mL
Cytohybrid ribosomes
  MIC, cytohybrid ribosomes: >1024
Cytohybrid ribosomes; Table 10
  MIC, bacteria with cytohybrid ribosome: >256.0 µg/mL
